Among the test systems are MDA-MB-231; MOLT-4; SF-539; SW-620; SR; MCF7; A498; Hs-578T; SF-268; NCI-H522; CAKI-1; HCC 2998; HT-29; MDA-N; LOX IMVI; TK-10; NCI-H23; RXF 393; HOP-62; T47D.
Holding throughout (assay): NCI tumour cell line growth inhibition, 48 h

The results in this text go back to ChEMBL document CHEMBL1201862, “PubChem BioAssay data set” (2004).

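Values below derive from 48-hour exposures of cells grown in 96-well plates, with endpoints linearly interpolated between the two concentrations bracketing the appropriate inhibition level. At the GI50, growth is halved.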 Activity calls are given as the source filed them. Cut-off read from the data, not from the text of the source: active = GI50 up to about 1.1 µM and inactive = higher. Bounds are passed on as bounds.

As to `COc1ccc(OC)c(CNc2ccc(C(=O)O)cc2)c1`, the GI50 in the test on MDA-MB-231, with MOLT-4, in the test on SF-539, in the test with SW-620, in the test with SR and with MCF7 was > 100 µM (inactive) in each case. The GI50 with A498, in the test on Hs-578T, in the test on SF-268, in the test on NCI-H522, in the test with CAKI-1 and in the test on HCC 2998 was > 100 µM (inactive) in each case. The GI50 in the test on HT-29, in the test on MDA-N, in the test on LOX IMVI, with TK-10 and in the test with NCI-H23 was > 100 µM (inactive) each time.
With `COc1ccc2nc3ccccc3c(NCCCCCCN(CCCl)CCCl)c2c1`, the GI50 in the test on MDA-MB-231 was 0.486 µM (active); in the test on MOLT-4, 0.0124 µM (active); in the test with SF-539, 0.215 µM (active); in the test on SW-620, 0.0199 µM (active); with SR it was 0.0115 µM (active); in the test with MCF7, 0.01 µM (active). The GI50 in the test with A498 is 0.405 µM (active); with SF-268, 0.0649 µM (active); in the test on RXF 393, 0.187 µM (active); with NCI-H522, 0.0338 µM (active); in the test on HOP-62, 0.212 µM (active); with CAKI-1 it was 0.0353 µM (active). Also, the GI50 in the test with HCC 2998 is 0.226 µM (active); with HT-29 it was 0.0248 µM (active); in the test with MDA-N, 0.057 µM (active); with LOX IMVI, 0.0199 µM (active); in the test on TK-10, 1.04 µM (active); in the test with NCI-H23, 0.15 µM (active).
With `CC1CC/C(=C\c2ccc(Cl)cc2)c2nc(N)c(C#N)c(-c3ccc(Cl)cc3)c21` (stereo not given), the GI50 in the test with MDA-MB-231 was > 100 µM (inactive); in the test on MOLT-4 it was 14.1 µM (inactive); with SF-539 it was 48.8 µM (inactive); in the test on SW-620 it was 55.3 µM (inactive); in the test on SR it was < 0.01 µM (active); in the test on MCF7 it was 22.8 µM (inactive). Moreover, the GI50 was 55.3 µM (inactive) with T47D; 26.3 µM (inactive) with A498; 30.3 µM (inactive) with NCI-H522; 70.6 µM (inactive) with HOP-62; 21.8 µM (inactive) with CAKI-1; 26.1 µM (inactive) with HCC 2998. Moreover, the GI50 was 30.7 µM (inactive) with HT-29; 88.1 µM (inactive) in the test with MDA-N; > 100 µM (inactive) with LOX IMVI; 45.4 µM (inactive) with TK-10; 30.3 µM (inactive) with NCI-H23.
For the compound `O=C1CN(c2ccc(Cl)cc2)C(=O)CN1NCNN1CC(=O)N(c2ccc(Cl)cc2)CC1=O`, the GI50 with MOLT-4, with SF-539, in the test on SW-620, in the test with SR, in the test with MCF7 and in the test with A498 was > 100 µM (inactive) throughout. The GI50 in the test with Hs-578T, in the test on SF-268, in the test with RXF 393, with NCI-H522, in the test on HOP-62 and with CAKI-1 was > 100 µM (inactive) each time. For the same compound, the GI50 in the test with HCC 2998, in the test on HT-29, in the test on MDA-N, in the test on TK-10 and with NCI-H23 was > 100 µM (inactive) each time.
As to `O=C(CN1CCCC1=O)CS(=O)(=O)c1ccccc1`, the GI50 in the test with MOLT-4, with SF-539, in the test on SW-620, with SR, with MCF7 and with Hs-578T was > 100 µM (inactive) throughout. Besides, the GI50 in the test with SF-268, with RXF 393, with NCI-H522, with HOP-62, in the test with HCC 2998 and in the test on HT-29 was > 100 µM (inactive) in each case. Moreover, the GI50 in the test with MDA-N, with LOX IMVI, with TK-10 and in the test with NCI-H23 was > 100 µM (inactive) in each case.
With `COc1cc(NS(C)(=O)=O)ccc1N1Cc2c[nH]c3ccc4nc(C)cc1c4c23`, the GI50 was 64 µM (inactive) in the test on MDA-MB-231; 48.5 µM (inactive) in the test on MOLT-4; > 100 µM (inactive) in the test on SW-620; 52.6 µM (inactive) with MCF7; > 100 µM (inactive) in the test with A498; 40.6 µM (inactive) in the test on Hs-578T. In addition, the GI50 was 22.7 µM (inactive) in the test on SF-268; 32 µM (inactive) in the test on RXF 393; 26.2 µM (inactive) in the test on NCI-H522; 25.9 µM (inactive) with HOP-62; 26.4 µM (inactive) in the test on CAKI-1; > 100 µM (inactive) in the test with HCC 2998. The GI50 in the test on HT-29 is > 100 µM (inactive); in the test with MDA-N, 19.6 µM (inactive); with LOX IMVI, > 100 µM (inactive); with TK-10 it was > 100 µM (inactive); with NCI-H23, 88.9 µM (inactive).
`CCOC(=O)CC(=O)NC1CC2CCC1(C)C2(C)C` (stereo not given): the GI50 in the test on MDA-MB-231, in the test on MOLT-4, in the test with SF-539, in the test on SW-620, in the test with SR and in the test with MCF7 was > 100 µM (inactive) throughout. Also, the GI50 in the test with A498, with Hs-578T, in the test on SF-268, with RXF 393, in the test on HOP-62 and in the test with CAKI-1 was > 100 µM (inactive) in each case. Besides, the GI50 in the test with HCC 2998, with HT-29, with MDA-N, in the test on LOX IMVI, with TK-10 and with NCI-H23 was > 100 µM (inactive) throughout.
For `C=C(C(=O)OC)[C@H]1CC/C(C)=C/CC[C@@](C)(O)C=CC[C@@]2(C)O[C@@H]2C1`, the GI50 in the test with MDA-MB-231 was 56.9 µM (inactive); in the test on MOLT-4 it was 12.7 µM (inactive); with SF-539, 21.5 µM (inactive); with SW-620, 28.1 µM (inactive); with SR, 9.93 µM (inactive); in the test on MCF7, 40.8 µM (inactive). For the same compound, the GI50 with T47D was 37.3 µM (inactive); in the test with A498, 20.7 µM (inactive); in the test on SF-268, 19.6 µM (inactive); in the test on RXF 393, 32.4 µM (inactive); with HOP-62, 44.3 µM (inactive); with CAKI-1, 24.1 µM (inactive). For the same compound, the GI50 is 42.1 µM (inactive) in the test with HCC 2998; 15.2 µM (inactive) with HT-29; 49.4 µM (inactive) in the test on MDA-N; 40.6 µM (inactive) with TK-10; 24.1 µM (inactive) in the test with NCI-H23.
Consider `COC(C)(C)C1=CCC(C)CC1` (stereo not given), for which the GI50 was 30 µM (inactive) in the test on MOLT-4; > 100 µM (inactive) with SF-539; > 100 µM (inactive) in the test with SW-620; 24 µM (inactive) with SR; 41.8 µM (inactive) with MCF7; > 100 µM (inactive) with A498. In addition, the GI50 with Hs-578T, with SF-268, with RXF 393, in the test with NCI-H522, in the test with HOP-62 and with CAKI-1 was > 100 µM (inactive) in each case. The GI50 with HCC 2998, with HT-29, with MDA-N, with TK-10 and in the test on NCI-H23 was > 100 µM (inactive) in each case.
On to `O=C1CCCc2ccc3c(c21)CC1(Cc2cc4c(cc2C1)CCCC4)C3`, for which the GI50 was 15.5 µM (inactive) with MDA-MB-231; 14.8 µM (inactive) with MOLT-4; 20.3 µM (inactive) in the test with SF-539; 16 µM (inactive) with SW-620; 6.98 µM (inactive) in the test on SR; 17.5 µM (inactive) in the test with MCF7. Further, the GI50 with T47D is 5.38 µM (inactive); in the test with A498, 37.6 µM (inactive); with Hs-578T it was 30.4 µM (inactive); in the test on SF-268 it was 29 µM (inactive); in the test on RXF 393 it was 15.6 µM (inactive); in the test with NCI-H522, 17.3 µM (inactive). The GI50 is 24.7 µM (inactive) in the test on HOP-62; 42.9 µM (inactive) with HCC 2998; 18.4 µM (inactive) with HT-29; 14.6 µM (inactive) with LOX IMVI; 23.1 µM (inactive) in the test on TK-10; 18.2 µM (inactive) in the test on NCI-H23.
Turning to `Cc1ccc(/N=C/C=C(\Nc2ccc(C)cc2)c2ccc3ccccc3c2)cc1`, the GI50 in the test on MDA-MB-231 was 0.388 µM (active); in the test on MOLT-4, 0.237 µM (active); with SF-539, 1.21 µM (inactive); with SW-620, 0.445 µM (active); in the test on SR it was 0.39 µM (active); in the test with MCF7, 0.515 µM (active). Besides, the GI50 was 1.41 µM (inactive) in the test with T47D; 10.8 µM (inactive) in the test with A498; 0.753 µM (active) in the test with Hs-578T; 2.19 µM (inactive) with SF-268; 0.521 µM (active) in the test with RXF 393; 2.74 µM (inactive) with NCI-H522. The GI50 was 0.912 µM (active) with HOP-62; 0.45 µM (active) in the test with CAKI-1; 0.347 µM (active) in the test on HT-29; 0.456 µM (active) in the test on LOX IMVI; 1.2 µM (inactive) with TK-10; 0.585 µM (active) in the test with NCI-H23.
`Cc1ccc(/C(=C/C=C(C#N)C#N)Sc2cc(Cl)ccc2Cl)cc1`: the GI50 was 3.18 µM (inactive) with MDA-MB-231; 3.18 µM (inactive) in the test on SF-539; 1.66 µM (inactive) with SW-620; 17.5 µM (inactive) with MCF7; 12.9 µM (inactive) in the test with T47D; 2.42 µM (inactive) with Hs-578T. Moreover, the GI50 in the test with SF-268 is 5.97 µM (inactive); in the test with RXF 393 it was 7.29 µM (inactive); with NCI-H522 it was 3.55 µM (inactive); in the test on HOP-62 it was 3.71 µM (inactive); in the test with CAKI-1, 4.76 µM (inactive); with HT-29, 3.81 µM (inactive). Further, the GI50 in the test on LOX IMVI is 1.01 µM (active); with TK-10, 2.92 µM (inactive); with NCI-H23, 3.85 µM (inactive).
